Values quoted from earlier work in patent US20060193783A1, “Low dose corticosteroid composition” (priority 2003, published 2006).

Assays:
[1] = used nasally

Row | solubility in water | Structure (SMILES) | nasal irritation [1]
1 | – | CN1CCCC1=O [N-methyl pyrrolidone] | does not cause any nasal irritation
2 | virtually insoluble in water | CCCC1O[C@@H]2C[C@H]3[C@@H]4CCC5=CC(=O)C=C[C@]5(C)[C@H]4[C@@H](O)C[C@]3(C)[C@]2(C(=O)CO)O1 (some centres unmarked) [Budesonide] | –
